Experimental data: ChEMBL document CHEMBL4184250, “Structure-activity studies of a macrocyclic peptide inhibitor of histone lysine demethylase 4A” (Bioorg Med Chem, 2018)
The source made the active and inactive calls. The rule behind the calls is not given here. Where a SMILES comes first, the peptide text is derived from it. Bridges are numbered along the chain shown (N, C = ends).

Assays:
[1] = molecular target: T1, Lysine-specific demethylase 4A (Homo sapiens, UniProt O75164); assay: Binding affinity to N-terminal His6-tagged KDM4A (1 to 359 residues) (unknown origin) expressed in Escherichia coli BL21(DE3) Rosetta by bio-layer interferometric method; details: read-out: Kd(app)
T1 sequence (O75164 whole entry): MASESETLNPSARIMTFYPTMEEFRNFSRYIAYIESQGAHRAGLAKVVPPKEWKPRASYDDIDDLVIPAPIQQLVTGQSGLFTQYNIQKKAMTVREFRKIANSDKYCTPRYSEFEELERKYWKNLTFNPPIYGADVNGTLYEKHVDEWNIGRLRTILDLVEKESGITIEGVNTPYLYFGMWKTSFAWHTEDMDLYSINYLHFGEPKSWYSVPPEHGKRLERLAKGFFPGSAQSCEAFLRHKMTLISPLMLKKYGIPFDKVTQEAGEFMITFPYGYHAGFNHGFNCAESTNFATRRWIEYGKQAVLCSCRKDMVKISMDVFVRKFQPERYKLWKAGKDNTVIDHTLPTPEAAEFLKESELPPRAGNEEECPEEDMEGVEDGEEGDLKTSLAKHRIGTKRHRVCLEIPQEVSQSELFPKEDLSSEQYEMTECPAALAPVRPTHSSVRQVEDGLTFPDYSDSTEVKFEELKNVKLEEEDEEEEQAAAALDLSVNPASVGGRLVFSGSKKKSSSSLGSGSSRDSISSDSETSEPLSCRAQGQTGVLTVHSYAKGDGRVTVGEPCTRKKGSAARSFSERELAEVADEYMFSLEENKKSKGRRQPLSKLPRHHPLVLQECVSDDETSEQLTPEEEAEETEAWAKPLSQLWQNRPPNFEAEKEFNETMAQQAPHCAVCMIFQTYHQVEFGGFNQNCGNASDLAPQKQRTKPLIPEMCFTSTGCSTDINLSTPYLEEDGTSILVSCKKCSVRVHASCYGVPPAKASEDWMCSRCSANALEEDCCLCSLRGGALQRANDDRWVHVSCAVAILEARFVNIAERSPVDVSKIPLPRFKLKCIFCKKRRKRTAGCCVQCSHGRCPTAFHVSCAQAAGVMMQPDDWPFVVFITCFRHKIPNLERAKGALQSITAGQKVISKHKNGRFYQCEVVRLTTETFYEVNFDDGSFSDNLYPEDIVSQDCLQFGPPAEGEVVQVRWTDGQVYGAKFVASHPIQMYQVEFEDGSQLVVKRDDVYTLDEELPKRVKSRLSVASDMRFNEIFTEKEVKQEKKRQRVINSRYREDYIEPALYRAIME

[2] = molecular target: T1, Lysine-specific demethylase 4A; assay: Stabilization of FLAG-tagged KDM4A (1 to 1064 residues) (unknown origin) expressed in human U2OS cells measured after 3 hrs by CETSA; assay type: cell-based
[3] = Drug uptake in human MCF7 cells assessed as cell area stained at 10 uM after 3 hrs by Hoechst 33342 staining based confocal microscopic analysis; assay type: ADME; details: mcf7, 3 h
[4] = molecular target: T2, Lysine-specific demethylase 4C (Homo sapiens, UniProt Q9H3R0); assay: Inhibition of KDM4C (unknown origin) expressed in Escherichia coli using biotinylated peptide as substrate pretreated for 15 mins followed by substrate addition by Alphascreen assay
T2 sequence (Q9H3R0 whole entry): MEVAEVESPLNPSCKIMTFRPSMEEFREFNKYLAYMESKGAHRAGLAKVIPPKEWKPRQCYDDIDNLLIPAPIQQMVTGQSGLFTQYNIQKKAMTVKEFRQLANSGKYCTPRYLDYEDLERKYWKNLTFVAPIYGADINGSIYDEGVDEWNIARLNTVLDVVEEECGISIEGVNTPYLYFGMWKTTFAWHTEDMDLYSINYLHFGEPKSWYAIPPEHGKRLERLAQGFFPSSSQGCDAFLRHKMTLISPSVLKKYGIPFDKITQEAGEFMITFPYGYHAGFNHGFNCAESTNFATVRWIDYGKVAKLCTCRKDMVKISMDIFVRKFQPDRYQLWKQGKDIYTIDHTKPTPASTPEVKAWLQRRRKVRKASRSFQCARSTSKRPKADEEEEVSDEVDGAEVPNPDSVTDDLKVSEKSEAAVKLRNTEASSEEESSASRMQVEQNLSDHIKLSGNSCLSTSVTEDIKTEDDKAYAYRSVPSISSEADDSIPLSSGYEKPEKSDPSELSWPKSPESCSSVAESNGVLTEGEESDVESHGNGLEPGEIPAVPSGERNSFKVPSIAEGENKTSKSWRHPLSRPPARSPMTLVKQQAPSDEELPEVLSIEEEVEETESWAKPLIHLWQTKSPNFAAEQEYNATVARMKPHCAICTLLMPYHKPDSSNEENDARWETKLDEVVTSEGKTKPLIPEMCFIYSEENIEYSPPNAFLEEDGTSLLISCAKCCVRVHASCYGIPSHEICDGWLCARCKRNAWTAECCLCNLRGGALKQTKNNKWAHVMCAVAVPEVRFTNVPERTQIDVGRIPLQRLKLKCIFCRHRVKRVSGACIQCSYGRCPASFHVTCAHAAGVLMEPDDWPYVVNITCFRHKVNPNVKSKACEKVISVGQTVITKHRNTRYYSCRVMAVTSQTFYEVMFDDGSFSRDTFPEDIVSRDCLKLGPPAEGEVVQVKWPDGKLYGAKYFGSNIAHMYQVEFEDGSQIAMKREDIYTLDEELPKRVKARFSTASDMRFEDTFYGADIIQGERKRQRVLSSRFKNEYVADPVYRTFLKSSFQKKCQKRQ

[5] = molecular target: T1, Lysine-specific demethylase 4A; assay: Inhibition of KDM4A (unknown origin) expressed in Escherichia coli using biotinylated peptide as substrate pretreated for 15 mins followed by substrate addition by Alphascreen assay
HeLa [6] = assay: Cytotoxicity against human HeLa cells expressing FLAG-tagged KDM4A assessed as reduction in cell numbers at >5 uM after 24 hrs by DAPI staining based immunofluorescence assay
[7] = molecular target: T1, Lysine-specific demethylase 4A; assay: Inhibition of full length FLAG-tagged KDM4A (unknown origin) expressed in human HeLa cells assessed as increase in H3K9me3 levels after 24 hrs by DAPI staining based immunofluorescence assay; assay type: cell-based
HeLa [8] = assay: Cytotoxicity against human HeLa cells expressing FLAG-tagged KDM4A assessed as condensed nucleus at 50 uM after 24 hrs by DAPI staining based immunofluorescence assay; assay type: cell-based
[9] = molecular target: T1, Lysine-specific demethylase 4A; assay: (§1) Binding affinity to biotinylated-KDM4A (unknown origin) at 300 nM by bio-layer interferometric method; details: read-out: Kd(app)
[10] = molecular target: T3, Lysine-specific demethylase 4A (Homo sapiens) (UniProt O75164); assay: as §1
T3 sequence (whole entry): T1 sequence (O75164 whole entry)

[11] = molecular target: T3, Lysine-specific demethylase 4A (Homo sapiens); assay: Inhibition of full length FLAG-tagged KDM4A (unknown origin) expressed in human HeLa cells assessed as increase in H3K9me3 levels at >20 uM after 24 hrs by DAPI staining based immunofluorescence assay; assay type: cell-based
[12] = Drug localization in lysosomes of human MCF7 cells at 10 uM after 3 hrs by Lysotracker red DND-99 staining based confocal microscopic analysis; assay type: ADME, subcellular, Lysosome; details: mcf7, 3 h

| Compound | Kd [1] | EC50 [2] | Drug uptake [3] | IC50 [4] | IC50 [5] | Activity (HeLa [6]) | EC50 [7] | Activity (HeLa [8]) | Kd [9] | Kd(app) [10] | inhibition [11] | Drug uptake [12] |
| --- | --- | --- | --- | --- | --- | --- | --- | --- | --- | --- | --- | --- |
| CC(C)[C@@H]1NC(=O)[C@@H](Cc2ccc(O)cc2)NC(=O)CSC[C@@H](C(N)=O)NC(=O)[C@H](Cc2c[nH]c3ccccc23)NC(=O)[C@H](Cc2ccc(O)cc2)NC(=O)[C@H](Cc2c[nH]c3ccccc23)NC(=O)[C@H](CCCNC(=N)N)NC(=O)[C@H](Cc2c[nH]c3ccccc23)NC(=O)CNC(=O)[C@H](CO)NC(=O)[C@H](CCCNC(=N)N)NC(=O)[C@H]([C@@H](C)O)NC(=O)[C@H](CC(N)=O)NC(=O)[C@H](Cc2ccc(O)cc2)NC1=O | 29.8 nM | > 100000 nM | 17.4% | 46 nM | 41 nM | – | – | – | – | – | – | – |
| CC[C@H](C)[C@@H]1NC(=O)CNC(=O)[C@H](CO)NC(=O)[C@H](CCCNC(=N)N)NC(=O)[C@H](CCCNC(=N)N)NC(=O)[C@H](Cc2ccccc2)NC(=O)[C@H](CCCNC(=N)N)NC(=O)[C@H]([C@@H](C)O)NC(=O)[C@@H](Cc2ccc(O)cc2)NC(=O)CSC[C@@H](C(N)=O)NC(=O)[C@H](Cc2ccc(O)cc2)NC(=O)[C@H](Cc2ccc(O)cc2)NC(=O)[C@H](Cc2ccccc2)NC(=O)[C@H](C(C)C)NC1=O | – | – | 13.4% | – | – | Toxic | > 50000 nM | Toxic | 2.6 nM | – | – | – |
| CC[C@H](C)[C@@H]1NC(=O)[C@H](CCCNC(=N)N)NC(=O)[C@@H]2CCCN2C(=O)[C@H](Cc2ccc(O)cc2)NC(=O)CSC[C@@H](C(N)=O)N(C)C(=O)[C@H](Cc2c[nH]c3ccccc23)NC(=O)[C@H](CCCNC(=N)N)NC(=O)[C@H]([C@@H](C)CC)NC(=O)[C@@H](C)NC(=O)[C@H](CO)NC(=O)[C@H](CCCNC(=N)N)NC(=O)[C@H](CCCNC(=N)N)NC1=O | – | – | 1.2% | 65 nM | 269 nM | – | > 50000 nM | – | – | inactive | – | – |
| CC[C@H](C)[C@@H]1NC(=O)CNC(=O)[C@H](CO)NC(=O)[C@H](CCCNC(=N)N)NC(=O)[C@H](CCCNC(=N)N)NC(=O)[C@H](Cc2ccccc2)NC(=O)[C@H](CCCNC(=N)N)NC(=O)[C@H]([C@H](C)O)NC(=O)[C@@H](Cc2ccc(O)cc2)NC(=O)CSC[C@@H](C(N)=O)NC(=O)[C@H](Cc2ccc(O)cc2)NC(=O)[C@H](Cc2ccc(O)cc2)NC(=O)[C@H](Cc2ccccc2)NC(=O)[C@H](C(C)C)NC1=O | – | – | – | – | – | – | – | – | – | – | Active | – |
| CC[C@H](C)[C@@H]1NC(=O)[C@H](CCCNC(=N)N)NC(=O)[C@H]([C@@H](C)CC)NC(=O)[C@H](Cc2ccc(O)cc2)NC(=O)CSC[C@@H](C(N)=O)NC(=O)[C@H](Cc2c[nH]c3ccccc23)NC(=O)[C@H](CC(C)C)NC(=O)[C@H](Cc2c[nH]c3ccccc23)NC(=O)CNC(=O)[C@H](CO)NC(=O)[C@H](CCCNC(=N)N)NC(=O)[C@H](CCCNC(=N)N)NC1=O ({CH2CO}-YIRIRRSGWLWC-NH2; thioether N-12) | – | – | 65.3% | 23 nM | 23 nM | – | > 50000 nM | – | 42 nM | – | – | Active |
| CC[C@H](C)[C@@H]1NC(=O)[C@H](CCCNC(=N)N)NC(=O)[C@H]([C@@H](C)CC)N(C)C(=O)[C@H](Cc2ccc(O)cc2)NC(=O)CSC[C@@H](C(N)=O)N(C)C(=O)[C@H](Cc2c[nH]c3ccccc23)NC(=O)[C@H](CC(C)C)NC(=O)[C@H](Cc2c[nH]c3ccccc23)NC(=O)[C@@H](C)NC(=O)[C@H](CO)NC(=O)[C@H](CCCNC(=N)N)NC(=O)[C@H](CCCNC(=N)N)NC1=O | – | – | 7.4% | 27 nM | 17 nM | – | > 50000 nM | – | 23 nM | – | Active | – |
| CC[C@H](C)[C@@H]1NC(=O)CNC(=O)[C@H](CO)NC(=O)[C@H](CCCNC(=N)N)NC(=O)[C@H](CCCNC(=N)N)NC(=O)[C@H]([C@@H](C)CC)NC(=O)[C@H](CCCNC(=N)N)NC(=O)[C@@H]2CCCN2C(=O)[C@H](Cc2ccc(O)cc2)NC(=O)CSC[C@@H](C(N)=O)NC(=O)[C@H](Cc2c[nH]c3ccccc23)NC(=O)[C@H](CCCNC(=N)N)NC1=O ({CH2CO}-YPRIRRSGIRWC-NH2; thioether N-12) | – | – | 76.8% | 466 nM | 615 nM | – | > 50000 nM | – | > 300 nM | – | – | Active |
